The text below walks through data of BindingDB's records for doi:10.1021/jm960596u (National Cancer Institute-Bethesda, 1997).

Where only a bound is given, the exact number is not on record here.

Assay [1] concerns the target T1, Integrase (Human immunodeficiency virus 1, UniProt Q7ZJM1). The assay is described as follows: Inhibitory concentration to inhibit HIV-1 integrase by 3' -processing method.
For assay [2], the target named is T1, Integrase. The assay is described as follows: Inhibitory concentration against HIV-1 integrase by strand transfer method.

T1 sequence (Q7ZJM1 whole entry): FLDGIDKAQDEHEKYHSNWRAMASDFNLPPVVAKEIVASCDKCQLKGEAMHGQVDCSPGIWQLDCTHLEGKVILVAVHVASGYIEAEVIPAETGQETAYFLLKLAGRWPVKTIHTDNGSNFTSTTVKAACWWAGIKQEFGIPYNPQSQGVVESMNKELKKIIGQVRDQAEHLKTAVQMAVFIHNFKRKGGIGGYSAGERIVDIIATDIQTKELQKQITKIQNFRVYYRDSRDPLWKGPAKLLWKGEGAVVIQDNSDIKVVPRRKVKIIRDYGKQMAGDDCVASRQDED

On to `Cc1[nH]n(-c2ccccc2)c(=O)c1N=Nc1ccc(S(N)(=O)=O)cc1`, for which the concentration for half-maximal inhibition (IC50) on Integrase [1] and at Integrase [2] was more than 200 µM throughout.

Regarding `CCC(=O)CC=c1[nH]c2nnc(CCCCc3nnc4[nH]c(=CCC(=O)CC)c(=O)n34)n2c1=O` [1-(5-oxo-3-{4-[5-oxo-6-(3-oxopentyl)-5H-imidazo[2,1-c][1,2,4]triazol-3-yl]butyl}-5H-imidazo[2,1-c][1,2,4]triazol-6-yl)-3-pentanone], the IC50 at Integrase [1] and on Integrase [2] was more than 200 µM throughout.

As for `CC1=C(N)C(=NNc2ccc(S(=O)(=O)Nc3cc(C)nc(C)n3)cc2)C(=O)C(C)C1=O` (stereo not given) [4-(2-Amino-3,5-dimethyl-4,6-dioxo-cyclohex-1-enylazo)-N-(2,6-dimethyl-pyrimidin-4-yl)-benzenesulfonamide], the IC50 on Integrase [1] and against Integrase [2] was more than 200 µM in each case.

As for `CC1=C(N)C(=NNc2ccc(S(=O)(=O)Nc3scc(C)c3C)cc2)C(=O)C(C)C1=O` (stereo not given) [4-(2-Amino-3,5-dimethyl-4,6-dioxo-cyclohex-1-enylazo)-N-(3,4-dimethyl-thiophen-2-yl)-benzenesulfonamide], the IC50 on Integrase [1] and against Integrase [2] was more than 200 µM throughout.

As for `CC1=C(N)C(=NNc2ccc(S(=O)(=O)Nc3nccc(C)n3)cc2)C(=O)C(C)C1=O` (stereo not given) [4-(2-Amino-3,5-dimethyl-4,6-dioxo-cyclohex-1-enylazo)-N-(4-methyl-pyrimidin-2-yl)-benzenesulfonamide], the IC50 on Integrase [1] and against Integrase [2] was more than 200 µM throughout.

`CC1=C(N)C(=NNc2ccc(S(=O)(=O)Nc3nnc(C)s3)cc2)C(=O)C(C)C1=O` (stereo not given) [4-(2-Amino-3,5-dimethyl-4,6-dioxo-cyclohex-1-enylazo)-N-(5-methyl-[1,3,4]thiadiazol-2-yl)-benzenesulfonamide]: the IC50 against Integrase [1] and on Integrase [2] was more than 200 µM each time.

For the compound `CC1=C(N)C(=NNc2ccc(S(=O)(=O)Nc3ccccn3)cc2)C(=O)C(C)C1=O` (stereo not given) [4-(2-Amino-3,5-dimethyl-4,6-dioxo-cyclohex-1-enylazo)-N-pyridin-2-yl-benzenesulfonamide], the IC50 against Integrase [1] and at Integrase [2] was more than 200 µM in each case.

Turning to `CC1=C(N)C(=NNc2ccc(S(=O)(=O)Nc3ncccn3)cc2)C(=O)C(C)C1=O` (stereo not given) [4-(2-Amino-3,5-dimethyl-4,6-dioxo-cyclohex-1-enylazo)-N-pyrimidin-2-yl-benzenesulfonamide], the IC50 against Integrase [1] and against Integrase [2] was more than 200 µM in each case.

As for `CC1=C(N)C(=NNc2ccc(S(=O)(=O)Nc3nccs3)cc2)C(=O)C(C)C1=O` (stereo not given) [4-(2-Amino-3,5-dimethyl-4,6-dioxo-cyclohex-1-enylazo)-N-thiazol-2-yl-benzenesulfonamide], the IC50 at Integrase [1] and at Integrase [2] was more than 200 µM throughout.

In the case of `Cc1[nH]n(-c2ccccc2)c(=O)c1N=Nc1ccc(S(=O)(=O)Nc2ccccn2)cc1` [4-(3-Methyl-5-oxo-1-phenyl-4,5-dihydro-1H-pyrazol-4-ylazo)-N-pyridin-2-yl-benzenesulfonamide], the IC50 at Integrase [1] and at Integrase [2] was more than 200 µM each time.

Take `Cc1[nH]n(-c2ccccc2)c(=O)c1N=Nc1ccc(S(=O)(=O)Nc2ncccn2)cc1` [4-(3-Methyl-5-oxo-1-phenyl-4,5-dihydro-1H-pyrazol-4-ylazo)-N-pyrimidin-2-yl-benzenesulfonamide]: the IC50 against Integrase [1] and at Integrase [2] was more than 200 µM throughout.

For `NS(=O)(=O)c1ccc(NN=C2Sc3nc4ccccc4n3C2=O)cc1` [4-(3-Oxo-2,3-dihydro-benzo[4,5]imidazo[2,1-b]thiazol-2-ylazo)-benzenesulfonamide], the IC50 against Integrase [1] and at Integrase [2] was more than 200 µM throughout.

As for `NS(=O)(=O)c1ccc(N=Cc2c(O)n(-c3ccccc3)n(-c3ccccc3)c2=O)cc1` [4-[(3,5-Dioxo-1,2-diphenyl-pyrazolidin-4-ylidenemethyl)-amino]-benzenesulfonamide], the IC50 against Integrase [1] and on Integrase [2] was more than 200 µM each time.

As for `NS(=O)(=O)c1ccc(N=Nc2c(O)n(-c3ccccc3)n(-c3ccccc3)c2=O)cc1` [4-[N'-(3,5-Dioxo-1,2-diphenyl-pyrazolidin-4-ylidene)-hydrazino]-benzenesulfonamide], the IC50 at Integrase [1] and at Integrase [2] was more than 200 µM throughout.

In the case of `Cc1cc(NS(=O)(=O)c2ccc(N=Nc3c(C)[nH]n(-c4ccccc4)c3=O)cc2)nc(C)n1` [N-(2,6-Dimethyl-pyrimidin-4-yl)-4-(3-methyl-5-oxo-1-phenyl-4,5-dihydro-1H-pyrazol-4-ylazo)-benzenesulfonamide], the IC50 at Integrase [1] and against Integrase [2] was more than 200 µM in each case.
